Measurements taken from the supplement of paper PMC4649846.

How the values were obtained:
MDA-MB-231 [1] = assay: drug sensitivity score (DSS); higher = more sensitive; extreme values may be limits of the assay; details: incubation time: 72 h
Experimental: (§1)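 MDA-MB-231 breast cancer cells were transfected with siBRCA1 or non-targeting siControl, then seeded 24 h later at 4000 cells/well in 384-well plates holding 198 drugs at 5 concentrations. Viability was read by CellTiter-Blue after 72 h at 37 °C. Dose-response curves were fitted in Dotmatics to give IC50 and a drug sensitivity score (DSS: area under the curve relative to the area between the 10% threshold and 100% inhibition, normalised by the log of the top response). The dose range is not stated. IC50 values of 8333.3 or 4166.7 nM mark no response (top dose), and 0.8333 nM is the lower limit.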

MDA-MB-231 [2] = details: incubation time: 72 h
Experimental: as §1

[3] = siRNA: siControl (non-targeting)

Compound | IC50 of cell viability (MDA-MB-231 [2]; siRNA: siBRCA1) | IC50 of cell viability (MDA-MB-231 [2]; [3]) | drug sensitivity score (MDA-MB-231 [1]; siRNA: siBRCA1) | drug sensitivity score (MDA-MB-231 [1]; [3])
O=c1[nH]c(=O)n([C@H]2C[C@H](O)[C@@H](CO)O2)cc1F [Floxuridine] | 748 nM | 291 nM | 8.85 | 11.5
CC(C)C(=O)Nc1ccc([N+](=O)[O-])c(C(F)(F)F)c1 [Flutamide] | > 4170 nM | > 4170 nM | 0 | 0
CS(=O)(=O)N1CCN(Cc2cc3nc(-c4cccc5[nH]ncc45)nc(N4CCOCC4)c3s2)CC1 [GDC-0941 (Pictilisib)] | 2530 nM | 570 nM | 7.18 | 12
CC(C)C[C@H](NC(=O)[C@@H](COC(C)(C)C)NC(=O)[C@H](Cc1ccc(O)cc1)NC(=O)[C@H](CO)NC(=O)[C@H](Cc1c[nH]c2ccccc12)NC(=O)[C@H](Cc1cnc[nH]1)NC(=O)[C@@H]1CCC(=O)N1)C(=O)N[C@@H](CCCNC(=N)N)C(=O)N1CCC[C@H]1C(=O)NNC(N)=O [Goserelin] | > 4170 nM | > 4170 nM | 0 | 0
NC(=O)NO [Hydroxyurea] | > 4170 nM | > 4170 nM | 0 | 0
CC(=O)[C@]1(O)Cc2c(O)c3c(c(O)c2[C@@H](O[C@H]2C[C@H](N)[C@H](O)[C@H](C)O2)C1)C(=O)c1ccccc1C3=O [Idarubicin] | 91.4 nM | 115 nM | 22 | 21
O=P1(NCCCl)OCCCN1CCCl (stereo not given) [Ifosfamide] | > 4170 nM | > 4170 nM | 0 | 0
CC(C)Cn1cnc2c(N)nc3ccccc3c21 [Imiquimod] | > 4170 nM | > 4170 nM | 0 | 0
O=C(Nc1ccncc1)C(=O)c1cn(Cc2ccc(Cl)cc2)c2ccccc12 [Indibulin] | 753 nM | 632 nM | 7.58 | 7.93
NC(=O)c1ccc(I)c([N+](=O)[O-])c1 [Iniparib] | > 4170 nM | > 4170 nM | 0 | 0
C/C(=C\c1csc(C)n1)[C@@H]1C[C@@H]2O[C@]2(C)CCC[C@H](C)[C@H](O)[C@@H](C)C(=O)C(C)(C)[C@@H](O)CC(=O)N1 [Ixabepilone] | 249 nM | 251 nM | 14.8 | 16.2
CS(=O)(=O)CCNCc1ccc(-c2ccc3ncnc(Nc4ccc(OCc5cccc(F)c5)c(Cl)c4)c3c2)o1 [Lapatinib] | 1150 nM | > 4170 nM | 4.84 | 0
C[C@]12O[C@H](C[C@]1(O)CO)n1c3ccccc3c3c4c(c5c6ccccc6n2c5c31)CNC4=O [Lestaurtinib] | 1400 nM | 794 nM | 8.59 | 11.3
c1ccc([C@H]2CN3CCSC3=N2)cc1 [Levamisole] | 3160 nM | > 4170 nM | 0.142 | 0
O=NN(CCCl)C(=O)NC1CCCCC1 [Lomustine] | > 4170 nM | > 4170 nM | 0 | 0
C=CCn1c(=O)c2cnc(Nc3ccc(N4CCN(C)CC4)cc3)nc2n1-c1cccc(C(C)(C)O)n1 [MK1775] | 348 nM | 230 nM | 13.2 | 14.3
NC1(c2ccc(-c3nc4ccn5c(=O)[nH]nc5c4cc3-c3ccccc3)cc2)CCC1 [MK-2206] | > 4170 nM | > 4170 nM | 0 | 0
Cc1ccc(NC(=O)c2ccc(CN3CCN(C)CC3)cc2)cc1Nc1nc(-c2cccnc2)cs1 [Masitinib] | > 4170 nM | 1410 nM | 0.717 | 4.31
N[C@@H](Cc1ccc(N(CCCl)CCCl)cc1)C(=O)O [Melphalan] | > 4170 nM | > 4170 nM | 0 | 0
CN(Cc1cnc2nc(N)nc(N)c2n1)c1ccc(C(=O)N[C@@H](CCC(=O)O)C(=O)O)cc1 [Methotrexate] | > 4170 nM | 4.32 nM | 0 | 9.3
Clc1ccc(C(c2ccccc2Cl)C(Cl)Cl)cc1 (stereo not given) [Mitotane] | > 4170 nM | > 4170 nM | 1.03 | 0
O=C1c2c(O)ccc(O)c2C(=O)c2c(NCCNCCO)ccc(NCCNCCO)c21 [Mitoxantrone] | 143 nM | 134 nM | 19.5 | 19.9
CC1(C)CNc2cc(NC(=O)c3cccnc3NCc3ccncc3)ccc21 [Motesanib] | > 4170 nM | > 4170 nM | 0 | 0

The next lines start with results.

IC50 of cell viability (MDA-MB-231 [2]; siRNA: siBRCA1) | IC50 of cell viability (MDA-MB-231 [2]; [3]) | Compound | drug sensitivity score (MDA-MB-231 [1]; siRNA: siBRCA1) | drug sensitivity score (MDA-MB-231 [1]; [3])
3000 nM | 1710 nM | CCCCCCCCc1ccc(CCC(N)(CO)CO)cc1 [Fingolimod] | 5.09 | 7.79
> 4170 nM | 333 nM | Nc1nc(F)nc2c1ncn2[C@@H]1O[C@H](CO)[C@@H](O)[C@@H]1O [Fludarabine] | 0 | 3.39
> 4170 nM | > 4170 nM | O=c1[nH]cc(F)c(=O)[nH]1 [Fluorouracil] | 1.13 | 0.956
503 nM | 585 nM | COc1cc2c(Oc3ccc(NC(=O)C4(C(=O)Nc5ccc(F)cc5)CC4)cc3F)ccnc2cc1OCCCN1CCOCC1 [Foretinib] | 13.6 | 12.8
> 4170 nM | > 4170 nM | C[C@]12CC[C@@H]3c4ccc(O)cc4C[C@@H](CCCCCCCCC[S+]([O-])CCCC(F)(F)C(F)(F)F)[C@H]3[C@@H]1CC[C@@H]2O (stereo not given in full) [Fulvestrant] | 0 | 0
> 4170 nM | > 4170 nM | COc1cc2ncnc(Nc3ccc(F)c(Cl)c3)c2cc1OCCCN1CCOCC1 [Gefitinib] | 0 | 0
2490 nM | 78.7 nM | Nc1ccn([C@@H]2O[C@H](CO)[C@@H](O)C2(F)F)c(=O)n1 [Gemcitabine] | 7.87 | 12.8
> 4170 nM | > 4170 nM | Cc1ccc(NC(=O)c2ccc(CN3CCN(C)CC3)cc2)cc1Nc1nccc(-c2cccnc2)n1 [Imatinib] | 0 | 0
760 nM | 576 nM | CCc1c2c(nc3ccc(OC(=O)N4CCC(N5CCCCC5)CC4)cc13)-c1cc3c(c(=O)n1C2)COC(=O)[C@]3(O)CC [Irinotecan] | 6.18 | 3.11
> 4170 nM | > 4170 nM | Nc1cccc2c1CN(C1CCC(=O)NC1=O)C2=O (stereo not given) [Lenalidomide] | 0 | 0
> 4170 nM | > 4170 nM | N#Cc1ccc(C(c2ccc(C#N)cc2)n2cncn2)cc1 [Letrozole] | 0 | 0
917 nM | 358 nM | COc1cc(Nc2ncc3c(n2)-c2ccc(Cl)cc2C(c2c(F)cccc2OC)=NC3)ccc1C(=O)O [MLN8237 (Alisertib)] | 4.61 | 8.75
> 4170 nM | 991 nM | S=c1[nH]cnc2nc[nH]c12 [Mercaptopurine] | 0 | 4.58
> 4170 nM | > 4170 nM | COc1c2occc2cc2ccc(=O)oc12 [Methoxsalen] | 0 | 0
> 4170 nM | > 4170 nM | C[C@H]1C[C@@H]2[C@H]([C@@H](O)C[C@@]3(C)[C@H]2CC[C@]3(O)C(=O)CO)[C@@]2(C)C=CC(=O)C=C12 [Methylprednisolone] | 0 | 0
> 4170 nM | > 4170 nM | CO[C@@]12[C@H](COC(N)=O)C3=C(C(=O)C(C)=C(N)C3=O)N1C[C@@H]1N[C@@H]12 [Mitomycin C] | 0 | 0
46.8 nM | 26.6 nM | CCNC(=O)c1noc(-c2cc(C(C)C)c(O)cc2O)c1-c1ccc(CN2CCOCC2)cc1 [NVP-AUY922] | 19.6 | 23
